# Assay results reported in patent US11285142B2, “Compositions and methods for identifying and treating dystonia disorders” (DUKE UNIVERSITY, priority 2015, dated 2022).
# pEC50: −log10 of the molar value.
# What was measured:
# [1] = Cytotoxicity (cell count, cellular morphology) in the Torsin1a assay cell line; type: cell-based, human; conditions: human
# Experimental: (§1) In order to test this model directly, the delta-E Torsin1a cell line was treated with compounds targeting the eIF2-alpha signaling pathway (FIG. 2). […] The following day, serial drug dilutions were prepared at 2× final concentration in assay media containing 10 μg/mL tetracycline and 30 μL of the drug/tetracycline mixture was added to the appropriate wells, while control wells received 30 μL of assay media alone or assay media+10 μg/mL tetracycline (final tetracycline concentration for all wells except negative controls: 5 μg/mL). Cells were then incubated at 37° C./5% CO^2 for 48 hours and fixed, permeabilized, Hoechst stained, and imaged as described above. The range of the Torsin1a localization effect was normalized to the percentage of cells with puncta in vehicle-treated delta-E cell line as the maximum and that in WT cell line as the minimum (FIG. 2, panels c-h). Cell count and EGFP-Torsin1a expression were normalized to their respective values in the vehicle-treated delta-E cell line as the maximum. All dose response data are the average of 4 independent experiments per dose. Untreated control data used for normalization are the average of 24 independent experiments.
# (§2) Efficacy is calculated as the magnitude of the pathology correction relative to the mutant Torsin1a pathology. For example an efficacy=−100% would be equivalent to the WT TorsinA phenotype, and 0% would be equivalent to the Mutant TorsinA phenotype. CCv2 refers to the dose response Curve Class annotation, and AC refers to Active Concentration.
# [2] = system: Flp-In T-REx 293 cells expressing delta-E Torsin1a; assay: as above; type: cell-based, human
# Experimental: as §1, §2
# [3] = system: CreP; assay: Western blot of CreP in EGFP-delta-E Torsin1a assay cell line; type: cell-based, human; conditions: EGFP-ΔE Torsin1a cells, increasing concentration
# Experimental: (§3) Cells were harvested in RIPA buffer [150 mM NaCl/50 mM NaH2PO4/2 mM EDTA/l % Triton X-100/0.5% SDS/0.5% deoxycholic acid/50 mM NaF/10 mM Na4P2O7/1 mM Na3VO4/1× phosphatase inhibitor cocktail (Sigma #P5726)/1× cOmplete Mini EDTA-free protease inhibitor cocktail (Roche #04693159001)]. Total protein concentrations were assessed by BCA assay (Thermo Fisher Scientific #23225). Proteins were resolved on 4-15% TGX gels (Bio-Rad #5671085), transferred to nitrocelulose membrane, blocked in TBS-T+5% non-fat dry milk, and probed as indicated. (Primary antibodies employed in the examples of the disclosure are presented in Table 4.) ATF4 expression was normalized to […] expression. N=3 independent control cells lines and 4 independent DYT1 cell lines, 3 replicates each.
# (§4) Western blot analyses were conducted to determine the effect of Lopinavir on ATF4, CreP, pEIF2-alpha, and β-actin abundance in EGFP-ΔE Torsin1a expression assay cell lines. […] This down regulation of CreP is in keeping with the HIV protease inhibitor mediated CreP regulation. (See De Gassart et al. PNAS 2015.)
# [4] = system: ATF4; assay: Western blot of ATF4 in EGFP-delta-E Torsin1a assay cell line; type: cell-based, human; conditions: EGFP-ΔE Torsin1a cells, dose dependent
# Experimental: as §3, §4
# [5] = system: luciferase secretion; assay: C.Luc. Secretion Assay (luciferase secretion, secretory deficits); type: cell-based
# Experimental: We tested each shRNA for its ability to rescue a previously described defect in luciferase secretion. Chen, P. et al. (2010) Hum. Mol. Genet. 19, 3502-15; Cao, S. et al. (2010) Dis. Model. Mech. 3, 386-96; Barrows, N. J., et al., (2010)J. Biomol. Screen. 15, 735-47.) DYT1 patient data were obtained from 4 independent patient-derived lines and WT data (black bar) from 3 normal healthy control lines. Each line was tested in 5 independent experiments that included 4 technical replicates each (with the exception of SCD data from 3 independent experiments).
# (Cao, S. et al. (2010) Dis. Model. Mech. 3, 386-96.) Subsequent testing of additional HIV protease inhibitors supported the activity of this class of compounds and generated favorable structure-activity relationship (SAR) data from which to design improved compounds (Tables 5 and 6). The results with a subset of compounds were also observed in a Luciferase secretion assay (Tables 5 and 6).
# [6] = system: EIF2-alpha; assay: Western blot of phosphorylated eIF2-alpha in EGFP-delta-E Torsin1a assay cell line; type: cell-based, human; conditions: EGFP-ΔE Torsin1a cells, dose dependent
# Experimental: as §3, §4
# [7] = system: delta-E Torsin1a localization in Flp-In T-REx 293 cells expressing EGFP-delta-E Torsin1a; assay: delta-E Torsin1a mis-localization assay (high-content imaging, % cells with EGFP puncta); type: cell-based, human
# Experimental: To limit variation in expression levels associated with random integration or transient expression, single copies of either WT or delta-E human TOR1A cDNAs with N-terminal EGFP fusions were inserted at the FRT site in Flp-In™ T-Rex™ 293 cells (Thermo Fisher Scientific #R780-07) via flippase recombinase-mediated cassette exchange according to the manufacturer's recommended protocols.
# The cells were maintained at 37° C./5% CO2. All experiments were performed on cells with fewer than 5 passages.
# Torsin1a expression was also controlled by tetracycline induction to avoid selective pressure modifying the cellular phenotypes. […] The mutant phenotype was measured as the percentage of cells with one or more EGFP puncta using automated high-content imaging analysis (see infra).
# The image analysis algorithm was developed using the Cellomics ArrayScan V CompartmentAnalysisV2 protocol. Hoechst's nuclear staining (Ch1: excitation 350 nm; emission 461 nm) was used for focusing and for cell identification by nuclear size, shape, and intensity. […] Detected cells were gated according to nuclear area, length-to-width ratio, and perimeter-to-area ratio. For the purpose of analysis, cell bodies were defined by a radius of 10 μm from the outer edge of the defined nucleus. Overlapping cells were automatically segmented according to the Cellomics ArrayScanV CompartmentAnalysisV2 object segmentation feature. EGFP fluorescence (Ch2: excitation 488 nm; emission 509 nm) was used for puncta detection. […] Torsin1a puncta were identified using the spot detection feature of the Compartmental AnalysisV2 protocol. The percentage of cells containing one or more puncta was used as the primary metric in this assay.
# as §1
smiles,measurement,setting,value
"Cc1cccc(C)c1OCC(=O)N[C@@H](Cc1ccccc1)[C@@H](O)C[C@H](Cc1ccccc1)NC(=O)[C@H](C(C)C)N1CCCNC1=O [Lopinavir, lopinavir]",EC50 at 48 h,"[1]; Flp-In T-REx 293 cells inducibly expressing delta-E Torsin1a, Table 5, read-out: ΔE TorsinA Mislocalization Assay Cytotoxicity EC50",37.2 µM
same,AC50,"[1]; Table 6, read-out: Cytotox AC50",37.2 µM
same,Cytotox CC-v2 (dose response Curve Class),[2]; Table 6,−3
same,Cytotox Efficacy,[2]; Table 6,−69.87
same,Cytotox Max Resp,[2]; Table 6,−55.19
same,"toxicity (cell count, cellular morphology; in words)",[2]; at effective concentrations,no cellular toxicity observed at effective doses
same,CreP abundance (steady state levels),[3],down-regulation of steady state levels
same,CreP abundance (steady state levels),[3]; listed as lopinavir,decreases CReP abundance
same,ATF4 abundance,[4],increases phosphorylation of EIF2-alpha and ATF4 abundance
same,pEC50,[5]; Table 5,6.01
same,Emax,"[5]; Table 5, read-out: C.Luc. Secretion Assay Secretion Max Efficacy",177%
same,correction of secretory deficits (in words),[5]; orthogonal assays,corrected secretory deficits
same,phosphorylation of EIF2-alpha,[6],increases phosphorylation of EIF2-alpha
same,pEC50,"[7]; Homo sapiens, Flp-In-T-REx-293, Table 5, read-out: ΔE TorsinA Mislocalization Assay Localization EC50",5.33
same,Emax,"[7]; Homo sapiens, Flp-In-T-REx-293, Table 5, read-out: ΔE TorsinA Mislocalization Assay Localization Max Efficacy",70%
same,AC50,"[7]; Homo sapiens, Flp-In-T-REx-293, Table 6, AC = Active Concentration, read-out: % pathology AC50",4.69 µM
same,% pathology Max Resp,"[7]; Table 6, normalized scale, WT-TorsinA line 0%, DYT1 mutant line 100% pathology",−89.03%
same,% pathology Efficacy,"[7]; Table 6, normalized scale, −100% = WT TorsinA phenotype, 0% = Mutant TorsinA phenotype",−69.97%
same,effect on delta-E Torsin1a localization (in words),"[7]; delta-E cell line, dose response",corrected TorsinA localization in a dose-dependent fashion
